Laboratory results reported in patent US8846710B2, “Method of preferentially inducing the biosynthesis of interferon” (3M Innovative Properties Company, priority 2005, dated 2014).

Columns and labels:
[1] = system: tumor necrosis factor (α) (TNF-α); assay: Cytokine induction in human cells: TNF-α secreted by PBMC into culture media (ORIGEN M-Series immunoassay); assay type: cell-based; design: key to Maximal Response (pg/mL) TNF / Maximal Response TNF: If any negative values result from background subtraction, the reading is reported as “*”, and is noted as not reliably detectable; settings: for Minimum Effective Concentration TNF / Maximal Response TNF / minimal effective concentration: human PBMC; for Minimum Effective Concentration TNF: median where tested in more than one experiment; for Maximal Response TNF / Maximal Response (pg/mL) TNF: median; for minimal effective concentration: lowest tested concentration inducing TNF-α over usually 40 pg/mL, median where more than one experiment, read-out: Minimum Effective Concentration (μM) TNF; for Maximal Response (pg/mL) TNF: maximal response in dose response curve
Summary of the method: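 Secreted TNF-α (pg/mL) was quantified by ORIGEN M-Series immunoassay after 18 to 24 hours culture at 37° C of human PBMC (2×10^6 cells/mL final) with test compound (usually 30-0.014 μM, 3-fold series, DMSO ≤1%). Values were corrected for DMSO or experimental background and a reference-compound ratio, giving a minimum effective concentration.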

interferon (α) (IFN-α) = assay: Cytokine induction in human cells: IFN-α secreted by PBMC into culture media (ELISA); assay type: cell-based; settings: for Maximal Response IFN / Minimum Effective Concentration IFN / minimal effective concentration: human PBMC; for Maximal Response IFN / Minimum Effective Concentration IFN: median where tested in more than one experiment; for minimal effective concentration: lowest tested concentration inducing IFN-α over usually 20 pg/mL, median where more than one experiment, read-out: Minimum Effective Concentration (μM) IFN; for Maximal Response (pg/mL) IFN: maximal response in dose response curve, median
Summary of the method: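 IFN-α secreted by density-gradient-isolated PBMC (final 2×10^6 cells/mL) was quantified by ELISA after 18–24 h compound exposure at 37 °C, typically 30-0.014 μM in 3-fold steps with ≤1% DMSO. Readings corrected for background and reference-compound variability; lowest concentration above usually 20 pg/mL reported, plus maximal response (pg/mL).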

[2] = Table 11, * = TNF below experimental background of 40 pg/mL
[3] = Table 10, * = below experimental background level
[4] = Table 7, background-subtracted, reference-adjusted
[5] = Table 12, * = below the experimental background of 40 pg/mL
[6] = Table 8, background-subtracted, reference-adjusted

Structure (SMILES) | Minimum Effective Concentration TNF ([1]; Table 11) | Maximal Response TNF [1, 2] | Maximal Response IFN (interferon (α) (IFN-α); Table 11) | Minimum Effective Concentration IFN (interferon (α) (IFN-α); Table 11) | also measured
CCc1nc2c(N)nc3ccccc3c2n1CC(C)(C)CN [Analog 99] | 0.37 µM | 13846 pg/mL | 405 pg/mL | 0.04 µM | –
CCOCc1nc2c(N)nc3cc(-c4ccc(C)cc4)ccc3c2n1CC(C)(C)O [Analog 42] | – | – | – | – | minimal effective concentration ([1]; Table 10): 0.12 µM; Maximal Response (pg/mL) TNF [1, 3]: 4456 pg/mL; minimal effective concentration (interferon (α) (IFN-α); Table 10): 0.12 µM; Maximal Response (pg/mL) IFN (interferon (α) (IFN-α); [3]): 650 pg/mL
COCCc1nc2c(N)nc3cc(-c4cncc(CO)c4)ccc3c2n1CC(C)(C)O [Analog 16] | – | – | – | – | minimal effective concentration ([1]; Table 10): 0.04 µM; Maximal Response (pg/mL) TNF [1, 3]: 16296 pg/mL; minimal effective concentration (interferon (α) (IFN-α); Table 10): 0.014 µM; Maximal Response (pg/mL) IFN (interferon (α) (IFN-α); [3]): 5868 pg/mL
CC(C)(Cn1c(CO)nc2c(N)nc3ccccc3c21)NC(=O)C1CCCCC1 [Example 5, N-[2-(4-Amino-2-hydroxymethyl-1H-imidazo[4,5-c]quinolin-1-yl)-1,1-dimethylethyl]cyclohexanecarboxamide] | – | 1130 pg/mL | 17274 pg/mL | – | –
COCCc1nc2c(N)nc3ccccc3c2n1CCCCCCCCNS(C)(=O)=O [Analog 118] | 0.014 µM | 1853 pg/mL | 1914 pg/mL | 0.014 µM | –
CCOCc1nc2c(N)nc3ccccc3c2n1CC(C)(C)CNS(C)(=O)=O [Analog 66] | 0.37 µM | 3768 pg/mL | 561 pg/mL | 0.12 µM | –
CCOCc1nc2c(N)nc3ccccc3c2n1CC(C)(C)NS(C)(=O)=O [Analog 4, N-[2-(4-Amino-2-ethoxymethyl-1H-imidazo[4,5-c]quinolin-1-yl)-1,1-dimethylethyl]methanesulfonamide] | – | 10665 pg/mL | 1138 pg/mL | – | Maximal Response (pg/mL) TNF [1, 4]: 10125 pg/mL; Maximal Response (pg/mL) IFN (interferon (α) (IFN-α); [4]): 889 pg/mL
CS(=O)(=O)CCCCCn1c(CCO)nc2c(N)nc3ccccc3c21 [Example 125] | >30 µM | * | 8361 pg/mL | 0.37 µM | –
CC(C)NC(=O)NC(C)(C)Cn1c(CO)nc2c(N)nc3ccccc3c21 [Example 142, 1-[2-(4-Amino-2-hydroxymethyl-1H-imidazo[4,5-c]quinolin-1-yl)-1,1-dimethylethyl]-3-(1-methylethyl)urea] | – | * | 1554 pg/mL | – | –
CCOCc1nc2c(N)nc3ccccc3c2n1CC(C)(C)N [Analog 111] | 0.37 µM | 11475 pg/mL | 656 pg/mL | 0.12 µM | –
CN(CCOCCn1c(CCO)nc2c(N)nc3ccccc3c21)C(=O)C1CCCCC1 [Example 135] | 30 µM | 146 pg/mL | 2464 pg/mL | 3.33 µM | –
CCOCc1nc2c(N)nc3ccccc3c2n1CCCNC(=O)N1CCOCC1 [Analog 88] | 1.11 µM | 1379 pg/mL | 6670 pg/mL | 0.12 µM | –
CS(=O)(=O)NCCn1c(CO)nc2c(N)nc3cccnc3c21 [Example 146, N-[2-(4-Amino-2-hydroxymethyl-1H-imidazo[4,5-c][1,5]naphthyridin-1-yl)ethyl]methanesulfonamide] | – | – | – | – | Maximal Response TNF [1, 5]: *; Maximal Response IFN (interferon (α) (IFN-α); Table 12): 1520 pg/mL
CCCc1nc2c(N)nc3cc(-c4cccnc4)ccc3c2n1CC1CCN(C(=O)C(C)C)CC1 [Analog 20] | – | – | – | – | minimal effective concentration ([1]; Table 10): 0.37 µM; Maximal Response (pg/mL) TNF [1, 3]: 1054 pg/mL; minimal effective concentration (interferon (α) (IFN-α); Table 10): 0.12 µM; Maximal Response (pg/mL) IFN (interferon (α) (IFN-α); [3]): 1157 pg/mL
Cc1nc2c(N)nc3cccnc3c2n1CC(C)(C)O [Analog 126, 1-(4-amino-2-methyl-1H-imidazo[4,5-c][1,5]naphthyridin-1-yl)-2-methylpropan-2-ol] | – | – | – | – | Maximal Response TNF [1, 5]: 6519 pg/mL; Maximal Response IFN (interferon (α) (IFN-α); Table 12): 1952 pg/mL
CCOCc1nc2c(N)nc3cccnc3c2n1CC(C)(C)NC(=O)C1CCCCC1 [Analog 129, N-[2-(4-amino-2-ethoxymethyl-1H-imidazo[4,5-c][1,5]naphthyridin-1-yl)-1,1-dimethylethyl]cyclohexanecarboxamide] | – | – | – | – | Maximal Response TNF [1, 5]: 8691 pg/mL; Maximal Response IFN (interferon (α) (IFN-α); Table 12): 1647 pg/mL
CCCc1nc2c(N)nc3cccnc3c2n1CC(C)(C)O [Analog 128, 1-(4-amino-2-propyl-1H-imidazo[4,5-c][1,5]naphthyridin-1-yl)-2-methylpropan-2-ol] | – | – | – | – | Maximal Response TNF [1, 5]: 5526 pg/mL; Maximal Response IFN (interferon (α) (IFN-α); Table 12): 2484 pg/mL
CCCc1nc2c(N)nc3cc(-c4cccnc4)ccc3c2n1CCCCNC(=O)C1CCCC1 [Analog 36] | – | – | – | – | minimal effective concentration ([1]; Table 10): 0.37 µM; Maximal Response (pg/mL) TNF [1, 3]: 2222 pg/mL; minimal effective concentration (interferon (α) (IFN-α); Table 10): 0.12 µM; Maximal Response (pg/mL) IFN (interferon (α) (IFN-α); [3]): 521 pg/mL
Cc1nc2c(N)nc3ccccc3c2n1CC(C)(C)CNS(C)(=O)=O [Analog 63] | 10 µM | 805 pg/mL | 1019 pg/mL | 0.37 µM | –
CCCc1nc2c(N)nc3ccccc3c2n1CCCCNC(=O)N1CCOCC1 [Analog 55] | 1.11 µM | 1298 pg/mL | 11255 pg/mL | 0.12 µM | –
COCCc1nc2c(N)nc3cc(-c4cccnc4)ccc3c2n1CC(C)C [Analog 25] | – | – | – | – | minimal effective concentration ([1]; Table 10): 0.04 µM; Maximal Response (pg/mL) TNF [1, 3]: 3151 pg/mL; minimal effective concentration (interferon (α) (IFN-α); Table 10): 0.014 µM; Maximal Response (pg/mL) IFN (interferon (α) (IFN-α); [3]): 1199 pg/mL
COCCc1nc2c(N)nc3cccnc3c2n1CC(C)(C)O [Analog 7, 1-[4-amino-2-(2-methoxyethyl)-1H-imidazo[4,5-c][1,5]naphthyridin-1-yl]-2-methylpropan-2-ol] | – | – | – | – | Maximal Response (pg/mL) TNF [1, 6]: 7762 pg/mL; Maximal Response TNF [1, 5]: 7503 pg/mL; Maximal Response (pg/mL) IFN (interferon (α) (IFN-α); [6]): 4143 pg/mL; Maximal Response IFN (interferon (α) (IFN-α); Table 12): 3142 pg/mL
Nc1nc2ccccc2c2c1nc(CCO)n2CCCNC(=O)N1CCOCC1 [Example 128] | >30 µM | * | 75 pg/mL | 30 µM | –
COCc1nc2c(N)nc3ccccc3c2n1CC(C)(C)CNC(=O)c1ccccc1 [Analog 94] | 3.33 µM | 9721 pg/mL | 2518 pg/mL | 1.11 µM | –
CCCc1nc2c(N)nc3ccccc3c2n1CCCCNS(C)(=O)=O [Analog 50] | 1.11 µM | 850 pg/mL | 2184 pg/mL | 0.12 µM | –
COCCc1nc2c(N)nc3ccccc3c2n1CC(C)(C)CNC(=O)c1ccccc1 [Analog 96] | 0.014 µM | 1812 pg/mL | 2133 pg/mL | 0.014 µM | –
CCOCc1nc2c(N)nc3cc(-c4cncc(CO)c4)ccc3c2n1CC(C)C [Analog 28] | – | – | – | – | minimal effective concentration ([1]; Table 10): 0.37 µM; Maximal Response (pg/mL) TNF [1, 3]: 3885 pg/mL; minimal effective concentration (interferon (α) (IFN-α); Table 10): 0.04 µM; Maximal Response (pg/mL) IFN (interferon (α) (IFN-α); [3]): 1263 pg/mL
Nc1nc2cc(-c3cccnc3)ccc2c2c1nc(CCO)n2CCCN1CCCC1=O [Example 160] | – | – | – | – | minimal effective concentration ([1]; Table 10): >30 µM; Maximal Response (pg/mL) TNF [1, 3]: *; minimal effective concentration (interferon (α) (IFN-α); Table 10): 30 µM; Maximal Response (pg/mL) IFN (interferon (α) (IFN-α); [3]): 109 pg/mL
